Laboratory results: patent US4211764A, “Gastric secretion stimulation with 2-amino-5-(2-aminoethyl)-1,3,4-thiadiozole” (priority 1978, dated 1980)
Entries after “also recorded” stand apart in the source; their conditions may differ.

Key:
[1] = system: gastric secretion of patients of middle age group; assay: Clinical test: effects of maximum doses upon gastric secretion of patients; format: in vivo, human; conditions: 2mg/kg; for Gastric Juice, Δ% / HCl Concentration, Δ% / Hourly HCl output, Δ%: 2nd versus 1st hour
Description: (§1) Special attention was paid to side effects and the reproductibility of the secretory response after repeated administrations of the drug.

[2] = system: gastric secretion of patients with duodenal ulceration; assay: Clinical comparison in patients with duodenal ulceration; format: in vivo, human
Description: as §1
Histamine and Pentagastrin Upon Main Gastric Secretion
Characteristics of Patients With Duodenal Ulceration

H2 -receptors = biological target: T1, H2 -receptors (Cavia porcellus, UniProt P47747); assay: Heart rate of isolated auricles; conditions: isolated guinea pig auricles; read-out: pD2 value, H2 -receptors (heart rate) (converted)
T1 construct: from tissue; host or cells: isolated guinea pig auricles (atria)
T1 sequence (P47747 whole entry): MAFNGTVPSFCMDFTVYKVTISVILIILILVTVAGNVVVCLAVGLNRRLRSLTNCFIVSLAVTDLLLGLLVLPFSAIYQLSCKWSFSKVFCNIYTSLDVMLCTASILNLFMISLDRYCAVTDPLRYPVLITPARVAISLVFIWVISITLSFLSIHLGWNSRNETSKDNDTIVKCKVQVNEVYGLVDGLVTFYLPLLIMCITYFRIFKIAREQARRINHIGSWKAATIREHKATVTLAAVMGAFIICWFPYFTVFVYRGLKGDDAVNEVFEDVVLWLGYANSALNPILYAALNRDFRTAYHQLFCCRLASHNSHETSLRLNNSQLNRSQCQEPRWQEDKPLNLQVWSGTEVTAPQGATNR
Protocol: Changes in the heart rate were measured, dose-response curves were plotted, and pD2 values were calculated.

dog's stomach = assay: Gastric secretion in dogs, administration per os; format: in vivo
Protocol: Chronic experiments were performed on male dogs weighing 20 to 25 kg and having a gastric fistula; prior to experiments, the animals were starved for 18 hours.

[3] = hypodermic, 1st hour (basal secretion)
[4] = hypodermic, 2nd hour (response to drug)
[5] = per os, 1st hour (basal secretion)
[6] = per os, 2nd hour (response to drug)

NCCc1nnc(N)s1 [Thidazine, 2-amino-5-(2-aminoethyl)-1,3,4-thiadiazole]
Gastric Juice [1, 3]: 87.0 ml per hour
HCl Concentration [1, 3]: 43.9 milliequivalents per liter
Gastric Juice [1, 4]: 200.5 ml per hour
HCl Concentration [1, 4]: 100.8 milliequivalents per liter
Gastric Juice, Δ% ([1]; hypodermic): +130.5%
HCl Concentration, Δ% ([1]; hypodermic): +129.6%
Hourly HCl output, Δ% ([1]; hypodermic): +471.9%
Hourly HCl output ([1]; hypodermic, 11 observations, 1st hour (basal secretion)): 8.2 milliequivalents per hour
Hourly HCl output ([1]; hypodermic, 11 observations, 2nd hour (response to drug)): 18.3 milliequivalents per hour
Gastric Juice [1, 5]: 102.1 ml per hour
HCl Concentration [1, 5]: 33.3 milliequivalents per liter
Gastric Juice [1, 6]: 227.9 ml per hour
HCl Concentration [1, 6]: 103.2 milliequivalents per liter
Gastric Juice, Δ% ([1]; per os): +123%
HCl Concentration, Δ% ([1]; per os): +209.9%
Hourly HCl output, Δ% ([1]; per os): +402.3%
Hourly HCl output ([1]; per os, 13 observations, 1st hour (basal secretion)): 4.3 milliequivalents per hour
Hourly HCl output ([1]; per os, 13 observations, 2nd hour (response to drug)): 21.6 milliequivalents per hour
Chymosin Output ([2]; 1st hour (basal secretion)): 17.3 ± 0.3 units per hour
Pepsin Output ([2]; 1st hour (basal secretion)): 4.0 ± 0.7 units per hour
Secretion, milliequivalents per hour ([2]; 1st hour (basal secretion)): 7.25 ± 0.9 Milliequivalents per hour
Chymosin Output ([2]; 2nd hour): 218.2 ± 4.0 units per hour
Pepsin Output ([2]; 2nd hour): 17.8 ± 2.3 units per hour
Secretion, milliequivalents per hour ([2]; 2nd hour): 23.9 ± 1.8 Milliequivalents per hour
EC50 (H2 -receptors): 7.94 µM
maximum level of gastric secretion (dog's stomach; per os, 100 mg per head): 26 mEq per hour
gastric secretion after administration per os (dog's stomach; thidazine 100 mg per head (parenterally and per os), histamine 10 and 20 mg, histalog 50 and 100 mg): can produce a maximum secretory effect when administered both parenterally and per os; also recorded: can produce a maximum secretion in a dog's stomach when administered both parenterally and perorally
